What all share (assay type): biochemical
One assay has as its target T1, HDAC5 (Homo sapiens, UniProt Q9UQL6).
T1 construct: cDNAs encoding truncated versions of HDAC4, 5 and 7 encompassing their deacetylase domains; hexahistidine (N); made in house; host or cells: Sf-9 insect cells (baculovirus)
As to the kind of experiment: Fluorescence-based HDAC enzyme assay, recombinant HDAC5. The following applies: recombinant human HDAC enzyme in vitro; read-out: IC50 (μM) HD5. An excerpt:
(§1) cDNAs of human HDAC1-8 and 11 were generated by RT-PCR reactions using primers complementary to the 5′ and 3′ coding sequence of human HDAC gene sequences in GenBank. cDNAs corresponding to the full length human HDAC1, 2, 3 and 11 were cloned into pBlueBac4.5 vector (Invitrogen). The constructs were used to generate recombinant baculoviruses using the Bac-N-Blue™ DNA according to the manufacturer's instructions (Invitrogen). The recombinant HDAC1, 2, 3, 11 proteins produced harbor a FLAG tag at their C-termini. cDNAs encoding truncated versions of HDAC4, 5 and 7 encompassing their deacetylase domains were cloned into pDEST10 as an N-terminal hexahistidine fusion protein and recombinant baculoviruses were generated using the Bac-to-Bac™ Baculovirus expression system (Invitrogen). HDAC6 and 8 were cloned as full length N-terminally His-tagged protein. All HDAC proteins were expressed in insect Sf-9 cells (Spodoptera frugiperdai) upon infection with recombinant baculovirus. HDAC1 enzyme was purified from the Q-sepharose FF column (Amersham Pharmacia Biotech, Baie d'Urfe QC, Canada) followed by an anti-FLAG immunoaffinity column (Sigma). HDAC2, 3 and 11 were purified using Flag-antibody immunoaffinity purification. HDAC4, 5, 6, 7 and 8 were purified using either Ni-NTA resin (QIAGEN Mississauga ON, Canada) or His-Select resin (Sigma) with step washes and elution with different concentrations of imidazole in Buffer containing 25 mM Tris (or NaPO4) pH 8.0, 10% glycerol and 150 mM or 500 mM NaCl.
(§2) Recombinant HDAC enzymes were incubated with diluted compounds in assay buffer (25 mM Hepes, pH 8.0, 137 mM NaCl, 1 mM MgCl2 and 2.7 mM KCl) for 10 minutes at ambient temperatures in black 96-well plate. Boc-Lys(Ac)-AMC (for HDAC1, 2, 3, 6, and 8 enzymes), which was purchased from Bachem Biosciences Inc., (King of Prussia, Philadelphia) were added into enzyme-compound mixture and incubated at 37° C. For HDAC4, 5, 7 assays, Boc-Lys(TFA)-AMC, which was synthesized in house, was used as substrate and 0.1% BSA was added to the buffer. […] Reaction time was predetermined to ensure that reaction was linear for the incubation time. Reaction was stopped by adding a freshly prepared trypsin (1 mg/ml final concentration) with 1 μM TSA (Biomol) in assay buffer. After 30 minutes, fluorescence was measured using a fluorometer (SPECTRAMAX GeminiXS, Molecular Devices, Sunnylvale, Calif.). The 50% inhibitory concentrations (IC50) for inhibitors were determined by analyzing dose-response inhibition curves.

For a further assay, the target named is T2, HDAC7 (Homo sapiens, UniProt Q8WUI4).
T2 construct: cDNAs encoding truncated versions of HDAC4, 5 and 7 encompassing their deacetylase domains; hexahistidine (N); made in house; host or cells: Sf-9 insect cells (baculovirus)
T2 sequence (Q8WUI4 512-865 limits assumed): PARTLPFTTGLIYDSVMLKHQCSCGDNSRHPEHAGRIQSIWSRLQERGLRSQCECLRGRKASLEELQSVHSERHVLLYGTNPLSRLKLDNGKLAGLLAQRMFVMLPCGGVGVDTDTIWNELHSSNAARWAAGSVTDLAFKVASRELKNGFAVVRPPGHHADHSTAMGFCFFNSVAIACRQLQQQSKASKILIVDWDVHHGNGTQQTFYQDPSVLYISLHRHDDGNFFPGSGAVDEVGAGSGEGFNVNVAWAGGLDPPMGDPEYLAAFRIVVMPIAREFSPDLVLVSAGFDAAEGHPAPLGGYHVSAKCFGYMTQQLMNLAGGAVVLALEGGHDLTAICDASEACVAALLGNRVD
As to the kind of experiment: Fluorescence-based HDAC enzyme assay, recombinant HDAC7. Particulars: recombinant human HDAC enzyme in vitro; read-out: IC50 (μM) HD7.
Description: as §1, §2

Assay [1] relates to recombinant human HDAC enzymes. Briefly: HDAC isotype selectivity across recombinant HDAC enzymes. Particulars: from Table 1.
Description: as §1, with “HDAC2, 3 and 11 were purified using Flag-antibody immunoaffinity purification.” left out
as §2, with “Boc-Lys(Ac)-AMC” for “Recombinant HDAC enzymes were incubated with diluted compounds in assay buffer (25 mM Hepes, pH 8.0, 137 mM NaCl, 1 mM MgCl2 and 2.7 mM KCl) for 10 minutes at ambient temperatures in black 96-well plate. Boc-Lys(Ac)-AMC”, “Calif.).” for “Calif.). The 50% inhibitory concentrations (IC50) for inhibitors were determined by analyzing dose-response inhibition curves.”

In another assay the target is T3, HDAC2 (Homo sapiens, UniProt Q92769).
T3 construct: cDNAs corresponding to the full length human HDAC1, 2, 3 and 11 were cloned into pBlueBac4.5 vector; FLAG (C); made in house; host or cells: Sf-9 insect cells (baculovirus)
T3 sequence (Q92769 whole entry): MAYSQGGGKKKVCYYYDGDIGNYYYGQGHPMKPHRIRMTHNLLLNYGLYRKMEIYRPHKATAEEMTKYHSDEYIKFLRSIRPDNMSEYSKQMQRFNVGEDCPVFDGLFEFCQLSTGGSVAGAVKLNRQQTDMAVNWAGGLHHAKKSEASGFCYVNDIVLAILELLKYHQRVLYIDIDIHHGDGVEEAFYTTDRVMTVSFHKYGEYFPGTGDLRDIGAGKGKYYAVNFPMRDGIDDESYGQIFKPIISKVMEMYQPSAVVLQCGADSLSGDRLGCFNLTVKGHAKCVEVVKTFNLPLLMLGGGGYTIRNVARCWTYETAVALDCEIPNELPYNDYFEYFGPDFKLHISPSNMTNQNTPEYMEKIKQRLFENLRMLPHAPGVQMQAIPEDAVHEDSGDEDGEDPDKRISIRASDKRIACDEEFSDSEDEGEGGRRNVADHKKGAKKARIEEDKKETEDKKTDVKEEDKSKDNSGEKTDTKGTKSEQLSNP
Briefly: Fluorescence-based HDAC enzyme assay, recombinant HDAC2. Particulars: recombinant human HDAC enzyme in vitro; read-out: IC50 (μM) HD2.
Description: as §1, with “HDAC2, 3 and 11 were purified using Flag-antibody immunoaffinity purification.” left out
as §2, with “Boc-Lys(Ac)-AMC” for “Recombinant HDAC enzymes were incubated with diluted compounds in assay buffer (25 mM Hepes, pH 8.0, 137 mM NaCl, 1 mM MgCl2 and 2.7 mM KCl) for 10 minutes at ambient temperatures in black 96-well plate. Boc-Lys(Ac)-AMC”, “Calif.).” for “Calif.). The 50% inhibitory concentrations (IC50) for inhibitors were determined by analyzing dose-response inhibition curves.”

T1 sequence (Q9UQL6 684-1028 limits assumed): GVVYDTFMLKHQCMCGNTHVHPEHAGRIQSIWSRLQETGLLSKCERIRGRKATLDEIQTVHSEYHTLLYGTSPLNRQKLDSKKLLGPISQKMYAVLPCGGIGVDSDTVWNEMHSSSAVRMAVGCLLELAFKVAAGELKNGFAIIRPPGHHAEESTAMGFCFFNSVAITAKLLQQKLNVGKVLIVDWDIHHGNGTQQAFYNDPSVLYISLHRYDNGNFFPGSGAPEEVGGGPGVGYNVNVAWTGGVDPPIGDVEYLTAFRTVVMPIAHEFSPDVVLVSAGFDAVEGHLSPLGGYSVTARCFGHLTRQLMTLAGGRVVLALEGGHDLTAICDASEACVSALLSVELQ

The term IC50 denotes the concentration that gives 50% inhibition. For `CN1CCN(c2ccc(C(=O)Nc3cc(-c4ccncc4)ccc3N)cc2)CC1` [Compound G], the results for the IC50 on HDAC5, at HDAC7 and at HDAC2 were above 10 µM, above 10 µM and 0.1 µM, respectively. The HDAC isotype selectivity entry in assay [1] was “selective for HDAC1 and HDAC 2”.
With `Nc1ccc(-c2ccccc2)cc1NC(=O)c1ccc(N2CCC(N)CC2)cc1` [Compound E], the IC50 on HDAC5 is above 10 µM; on HDAC7, above 10 µM; at HDAC2, 0.08 µM. In addition, the HDAC isotype selectivity result in assay [1] was “selective for HDAC1 and HDAC 2”.
As for `Nc1ccccc1NC(=O)c1ccc(N2CC[C@H](Nc3cccnc3)C2)cc1` [Compound B], the IC50 was above 10 µM on HDAC5, above 10 µM on HDAC7 and 0.5 µM on HDAC2. For the same molecule, the HDAC isotype selectivity result in assay [1] was “selective inhibitors of HDAC1, 2 and 3”.
Turning to `Nc1ccccc1NC(=O)c1ccc(CNc2nccc(-c3cccnc3)n2)cc1` [Compound A], the half-inhibitory concentration (IC50) at HDAC5 and on HDAC7 was above 10 µM throughout.
For `CC(C)N1CCN(c2ccc(C(=O)Nc3cc(-c4ccncc4)ccc3N)cc2)CC1` [Compound H], the IC50 was above 10 µM at HDAC5, above 10 µM at HDAC7 and 0.09 µM at HDAC2. The HDAC isotype selectivity result in assay [1] was “selective for HDAC1 and HDAC 2”.
Take `Nc1ccc(-c2ccccc2)cc1NC(=O)c1ccc(N2CC[C@H](N)C2)cc1` [Compound D]: the figures for the 50% inhibitory concentration (IC50) on HDAC5, at HDAC7 and at HDAC2 were above 10 µM, above 10 µM and 0.09 µM, respectively. For the same molecule, the HDAC isotype selectivity result in assay [1] is “selective for HDAC1 and HDAC 2”.
Consider `CN1CCN(c2ccc(C(=O)Nc3cc(-c4ccccn4)ccc3N)cc2)CC1` [Compound F], for which the figures for the 50% inhibitory concentration (IC50) on HDAC5, at HDAC7 and at HDAC2 were above 10 µM, above 10 µM and 0.1 µM, respectively. Moreover, the HDAC isotype selectivity entry in assay [1] was “selective for HDAC1 and HDAC 2”.

For the origin of these results see US20090124631A1, “Combination Therapy” (priority 2007, published 2009).
